ChEMBL document CHEMBL4813943, “Hybrids of Small-Molecule CD4 Mimics with Polyethylene Glycol Units as HIV Entry Inhibitors” (J Med Chem, 2021)
Each block holds one compound with its values, some of them ahead of it.

Legend:
[1] = Cytotoxicity against human TZM-bl cells assessed as reduction in cell viability by Cell Titer-Glo assay; format: cell-based
[2] = Initial drug concentration in rhesus monkey blood at 24 mg/kg, iv measured upto 6 hrs by HPLC analysis; format: ADME, organism-based, Macaca mulatta
[3] = Acute toxicity in rhesus monkey assessed as effect on blood oxygen levels at 24 mg/kg, iv measured after 24 hrs; format: organism-based, Macaca mulatta; conditions: in vivo
[4] = Acute toxicity in rhesus monkey assessed as increase in pulse rate at 24 mg/kg, iv measured within 15 mins; format: organism-based, Macaca mulatta; conditions: in vivo, 0.25 h
[5] = Acute toxicity in rhesus monkey assessed as animal survival at 24 mg/kg, iv measured after 24 hrs; format: organism-based, Macaca mulatta; conditions: in vivo
[6] = Half life in rhesus monkey at 24 mg/kg, iv measured upto 6 hrs by HPLC analysis; format: ADME, organism-based, Macaca mulatta; conditions: in vivo
[7] = Acute toxicity in rhesus monkey assessed as decrease in blood oxygen level at 24 mg/kg, iv measured within 15 mins; format: organism-based, Macaca mulatta; conditions: in vivo, 0.25 h
[8] = Volume of distribution in rhesus monkey at 24 mg/kg, iv measured upto 6 hrs by HPLC analysis; format: ADME, organism-based, Macaca mulatta; conditions: in vivo
[9] = Acute toxicity in iv dosed rhesus monkey assessed as maximum tolerated dose; format: organism-based, Macaca mulatta; conditions: in vivo
[10] = Acute toxicity in rhesus monkey assessed as effect on pulse rate at 24 mg/kg, iv measured after 24 hrs; format: organism-based, Macaca mulatta; conditions: in vivo
[11] = Stability of the compound assessed as drug degradation at 10 umol measured after 25 mins by HPLC analysis; format: physicochemical; conditions: at 10 µmol, read-out: Drug degradation
[12] = Stability of the compound assessed as drug degradation at 10 umol measured after 5 mins by HPLC analysis; format: physicochemical; conditions: at 10 µmol, read-out: Drug degradation
[13] = Stability of the compound assessed as drug degradation at 10 umol measured after 1 mins by HPLC analysis; format: physicochemical; conditions: at 10 µmol, read-out: Drug degradation
[14] = target: Envelope glycoprotein gp160 (Human immunodeficiency virus 1) (UniProt Q6QLK5); assay: Inhibition of HIV1 KP-5mvcR gp120 interaction with CD4 in human TZM-bl cells assessed as decrease in viral entry at 0.1 uM by […] assay relative to control; format: cell-based
Sequence of Envelope glycoprotein gp160 (Human immunodeficiency virus 1) (Q6QLK5 1-814): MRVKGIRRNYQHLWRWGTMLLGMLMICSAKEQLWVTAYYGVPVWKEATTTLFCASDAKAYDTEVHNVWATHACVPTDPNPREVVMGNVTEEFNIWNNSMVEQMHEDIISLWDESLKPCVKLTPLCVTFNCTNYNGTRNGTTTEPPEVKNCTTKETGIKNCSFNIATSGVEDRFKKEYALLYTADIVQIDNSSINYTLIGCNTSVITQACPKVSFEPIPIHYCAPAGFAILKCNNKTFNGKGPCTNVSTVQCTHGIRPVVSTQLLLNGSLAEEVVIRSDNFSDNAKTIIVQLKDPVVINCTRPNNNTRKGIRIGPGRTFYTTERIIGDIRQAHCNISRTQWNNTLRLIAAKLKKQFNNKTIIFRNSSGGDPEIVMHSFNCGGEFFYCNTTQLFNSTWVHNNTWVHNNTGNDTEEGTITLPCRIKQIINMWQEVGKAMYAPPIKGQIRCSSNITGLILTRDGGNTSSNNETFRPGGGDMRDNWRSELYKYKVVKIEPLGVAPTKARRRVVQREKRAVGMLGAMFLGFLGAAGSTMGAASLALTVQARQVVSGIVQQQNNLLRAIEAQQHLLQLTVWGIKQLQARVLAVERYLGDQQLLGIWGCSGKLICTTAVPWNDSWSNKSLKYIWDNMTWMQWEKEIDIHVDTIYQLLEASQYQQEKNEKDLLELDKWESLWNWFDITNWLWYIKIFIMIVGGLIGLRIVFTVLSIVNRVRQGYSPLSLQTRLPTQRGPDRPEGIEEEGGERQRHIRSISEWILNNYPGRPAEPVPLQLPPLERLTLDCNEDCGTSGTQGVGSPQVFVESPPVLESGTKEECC

[15] = Half life of the compound by HPLC analysis; format: physicochemical
[16] = tested on: Simian immunodeficiency virus; assay: Potentiation of KD-247-induced viral neutralizing activity against SHIV KS2661 infected in human TZM-bl cells assessed as fold reduction in KD-247 IC50 for viral neutralization at 10 uM measured after 48 hrs by luciferase assay relative to KD-247; format: functional
[17] = Half life in rhesus monkey at 36 mg, IM measured upto 48.1 hrs by HPLC analysis; format: ADME, Macaca mulatta; conditions: in vivo
[18] = Cmax in rhesus monkey at 9 mg, IM measured upto 48.1 hrs by HPLC analysis; format: ADME, Macaca mulatta; parameters: route intramuscular, dose 9 mg, time <=48.1; conditions: in vivo
[19] = Toxicity in rhesus monkey assessed as effect on body motion at 33.2 mg, iv measured within 25 mins; format: organism-based, Macaca mulatta; conditions: in vivo
[20] = Cmax in rhesus monkey at 36 mg, IM measured upto 48.1 hrs by HPLC analysis; format: ADME, Macaca mulatta; parameters: route intramuscular, dose 36 mg, time <=48.1; conditions: in vivo
[21] = Volume of distribution in rhesus monkey at 33.2 mg, IV measured upto 72 hrs by HPLC analysis; format: ADME, Macaca mulatta; conditions: in vivo
[22] = Volume of distribution in rhesus monkey at 18 mg, IM measured upto 48.1 hrs by HPLC analysis; format: ADME, Macaca mulatta; conditions: in vivo
[23] = Half life in rhesus monkey at 18 mg, IM measured upto 48.1 hrs by HPLC analysis; format: ADME, Macaca mulatta; conditions: in vivo
[24] = Half life in rhesus monkey at 33.2 mg, iv measured upto 72 hrs by HPLC analysis; format: ADME, organism-based, Macaca mulatta; conditions: in vivo
[25] = Volume of distribution in rhesus monkey at 36 mg, IM measured upto 48.1 hrs by HPLC analysis; format: ADME, Macaca mulatta; conditions: in vivo
[26] = Toxicity in rhesus monkey assessed as increase in pulse rate at 33.2 mg, iv measured within 25 mins; format: organism-based, Macaca mulatta; conditions: in vivo
[27] = Cmax in rhesus monkey at 18 mg, IM measured upto 48.1 hrs by HPLC analysis; format: ADME, Macaca mulatta; parameters: route intramuscular, dose 18 mg, time <=48.1; conditions: in vivo
[28] = Volume of distribution in rhesus monkey at 9 mg, IM measured upto 48.1 hrs by HPLC analysis; format: ADME, Macaca mulatta; conditions: in vivo
[29] = Half life in rhesus monkey at 9 mg, IM measured upto 48.1 hrs by HPLC analysis; format: ADME, Macaca mulatta; conditions: in vivo
[30] = Cmax in rhesus monkey at 33.2 mg, iv measured upto 72 hrs by HPLC analysis; format: ADME, organism-based, Macaca mulatta; parameters: route intravenous, dose 33.2 mg, time <=72; conditions: in vivo

Structure (SMILES): CCCCCCCCCCCCCCCCNC(=O)CCC(=O)OC(CCCNS(=O)(=O)c1ccc([N+](=O)[O-])cc1)C(=O)NCCN1CCC(NC(=O)C(=O)Nc2ccc(Cl)cc2)CC12CCCCC2 (centres undefined)
CC50 [1]: > 300 µM

Structure (SMILES): N=C(N)NCCCCC(=O)NCCN1CCC(NC(=O)C(=O)Nc2ccc(Cl)cc2)CC12CCCCC2.O=C(O)C(F)(F)F.O=C(O)C(F)(F)F (centres undefined)
C0 at 6 h [2]: 23.3 µM | Activity [3]: Non-Toxic | Activity [4]: Toxic | Activity [5]: Non-Toxic | half-life [6]: 31 min | Activity [7]: Toxic | Vd [8]: 10.8 L | MTD [9]: 24 mg/kg | Activity [10]: Non-Toxic

Structure (SMILES): CCCCCCCCCCCCCCCCNC(=O)CCC(=O)OC(CCCNC(=N)N)C(=O)NCCN1CCC(NC(=O)C(=O)Nc2ccc(Cl)cc2)CC12CCCCC2 (centres undefined)
CC50 [1]: 17 µM

Structure (SMILES): COCCOCCOCCOCCOCCNC(=O)CCC(=O)OC(CCCN)C(=O)NCCN1CCC(NC(=O)C(=O)Nc2ccc(Cl)cc2)CC12CCCCC2 (centres undefined)
CC50 [1]: 81 µM

degraded at 25 min, 10 umol [11]: 20% | degraded at 5 min, 10 umol [12]: 0% | degraded at 1 min, 10 umol [13]: 0%
Structure (SMILES): COCCOCCOCCOCCOCCNC(=O)CCC(=O)OC(CCCNC(=N)N)C(=O)NCCN1CCC(NC(=O)C(=O)Nc2ccc(Cl)cc2)CC12CCCCC2 (centres undefined) [listing 1 of 2 here]

Structure (SMILES): N=C(N)NCCCCCCCC(=O)NCCN1CCC(NC(=O)C(=O)Nc2ccc(Cl)cc2)CC12CCCCC2 (centres undefined)
CC50 [1]: > 300 µM

Structure (SMILES): N=C(N)NCCCC[C@H](NC(=N)N)C(=O)NCCN1CCC(NC(=O)C(=O)Nc2ccc(Cl)cc2)CC12CCCCC2 (some centres undefined)
CC50 [1]: 46 µM

inhibition [14]: 65%
Structure (SMILES): COCCOCCOCCOCCOCCOCCOCCOCCOCCOCCOCCOCCOCCOCCOCCOCCOCCOCCOCCOCCOCCOCCOCCOCCNC(=O)CCC(=O)N[C@@H](CCCNC(=N)N)C(=O)NCCN1CCC(NC(=O)C(=O)Nc2ccc(Cl)cc2)CC12CCCCC2 (some centres undefined)
CC50 [1]: 40 µM

Structure (SMILES): COCCOCCOCCOCCOCCNC(=O)CCC(=O)N[C@@H](CCCNC(=N)N)C(=O)NCCN1CCC(NC(=O)C(=O)Nc2ccc(Cl)cc2)CC12CCCCC2 (some centres undefined)
CC50 [1]: > 100 µM

Structure (SMILES): N=C(N)NCCCCC(=O)NCCCC[C@H](NC(=N)N)C(=O)NCCN1CCC(NC(=O)C(=O)Nc2ccc(Cl)cc2)CC12CCCCC2 (some centres undefined)
CC50 [1]: 62 µM

Structure (SMILES): N=C(N)NCCCCCCCCCCC(=O)NCCN1CCC(NC(=O)C(=O)Nc2ccc(Cl)cc2)CC12CCCCC2 (centres undefined)
CC50 [1]: 1.1 µM

Structure (SMILES): CCCCCCCCCCCCCCCCNC(=O)CCC(=O)OC(CCCN)C(=O)NCCN1CCC(NC(=O)C(=O)Nc2ccc(Cl)cc2)CC12CCCCC2 (centres undefined)
CC50 [1]: 5.7 µM

half-life [15]: 126 min
Structure (SMILES): COCCOCCOCCOCCOCCNC(=O)CCC(=O)OC(CCCNC(=N)N)C(=O)NCCN1CCC(NC(=O)C(=O)Nc2ccc(Cl)cc2)CC12CCCCC2 (centres undefined) [listing 2 of 2 here]
CC50 [1]: 109 µM

Structure (SMILES): COCCOCCOCCOCCOCCOCCOCCOCCOCCOCCOCCOCCNC(=O)CCC(=O)N[C@@H](CCCNC(=N)N)C(=O)NCCN1CCC(NC(=O)C(=O)Nc2ccc(Cl)cc2)CC12CCCCC2 (some centres undefined) [listing 1 of 2 here]
inhibition [14]: 50%

Structure (SMILES): N=C(N)NCCCCCCCCCCC(=O)NCCCC[C@H](NC(=N)N)C(=O)NCCN1CCC(NC(=O)C(=O)Nc2ccc(Cl)cc2)CC12CCCCC2 (some centres undefined)
CC50 [1]: 15 µM

Structure (SMILES): N=C(N)NCCCCC(=O)NCCN1CCC(NC(=O)C(=O)Nc2ccc(Cl)cc2)CC12CCCCC2 (centres undefined)
CC50 [1]: 65 µM

Structure (SMILES): N=C(N)NCCCCCCCC(=O)NCCCC[C@H](NC(=N)N)C(=O)NCCN1CCC(NC(=O)C(=O)Nc2ccc(Cl)cc2)CC12CCCCC2 (some centres undefined)
CC50 [1]: 44 µM

Structure (SMILES): COCCOCCOCCOCCOCCOCCOCCOCCOCCOCCOCCOCCNC(=O)CCC(=O)N[C@@H](CCCNC(=N)N)C(=O)NCCN1CCC(NC(=O)C(=O)Nc2ccc(Cl)cc2)CC12CCCCC2 (some centres undefined) [listing 2 of 2 here]
fold change (FC) [16]: 20 | CC50 [1]: > 100 µM

Structure (SMILES): CC1(C)CC(NC(=O)C(=O)Nc2ccc(Cl)cc2)CC(C)(C)N1
CC50 [1]: 132 µM

Structure (SMILES): N=C(N)NCC(=O)NCCCC[C@H](NC(=N)N)C(=O)NCCN1CCC(NC(=O)C(=O)Nc2ccc(Cl)cc2)CC12CCCCC2 (some centres undefined)
CC50 [1]: 42 µM

Structure (SMILES): COCCOCCOCCOCCOCCNC(=O)CCC(=O)OC(CCCNS(=O)(=O)c1ccc([N+](=O)[O-])cc1)C(=O)NCCN1CCC(NC(=O)C(=O)Nc2ccc(Cl)cc2)CC12CCCCC2 (centres undefined)
CC50 [1]: 174 µM

Structure (SMILES): COCCOCCOCCOCCOCCOCCOCCOCCOCCOCCOCCOCCNC(=O)CCC(=O)N[C@@H](CCCNC(=N)N)C(=O)NCCN1CCC(NC(=O)C(=O)Nc2ccc(Cl)cc2)CC12CCCCC2.O=C(O)C(F)(F)F.O=C(O)C(F)(F)F (some centres undefined)
half-life [17]: 86.4 min | Cmax [18]: 56.4 µM | Activity [19]: Toxic | Cmax [20]: 128 µM | Vd [21]: 592 mL | Vd [22]: 215 mL | half-life [23]: 58.9 min | t1/2 [24]: 107.4 min | Vd [25]: 200 mL | Activity [26]: Toxic | Cmax [27]: 59.4 µM | Vd [28]: 114 mL | half-life [29]: 47.6 min | MTD [9]: 3.78 mg/kg | Cmax [30]: 39.5 µM
